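Method: 48-hour compound exposure of cells in 96-well plates, five concentrations, linear interpolation of endpoints. GI50 = concentration required for 50% inhibition of growth.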 Activity calls are given as the source filed them. Cut-off read from the data, not from the text of the source: active = GI50 up to about 1.1 µM and inactive = higher.
Legend:
Assay in all cases: NCI tumour cell line growth inhibition, 48 h
BT-549 = test system: BT-549
SK-OV-3 = test system: SK-OV-3
SK-MEL-5 = test system: SK-MEL-5
HOP-92 = test system: HOP-92
NCI/ADR-RES = test system: NCI/ADR-RES
Hs-578T = test system: Hs-578T
NCI-H522 = test system: NCI-H522
MDA-MB-435 = test system: MDA-MB-435
K562 = test system: K562
CAKI-1 = test system: CAKI-1
SNB-19 = test system: SNB-19
786-0 = test system: 786-0
HT-29 = test system: HT-29
SF-268 = test system: SF-268
HCC 2998 = test system: HCC 2998
TK-10 = test system: TK-10
U-251 = test system: U-251
RPMI-8226 = test system: RPMI-8226
MDA-N = test system: MDA-N

Measured: GI50

Cc1cc(OCc2nnc3n2S(=O)(=O)c2ccccc2N3C)ccc1Cl
inactive: BT-549 18.2 µM | SK-OV-3 10.4 µM | SK-MEL-5 38.7 µM | HOP-92 16.1 µM | NCI/ADR-RES 35.7 µM | Hs-578T 40.8 µM | NCI-H522 6.79 µM | MDA-MB-435 > 100 µM | K562 68.7 µM | CAKI-1 28.8 µM | SNB-19 19.3 µM | 786-0 11.8 µM | HT-29 52 µM | SF-268 16.3 µM | HCC 2998 > 100 µM | TK-10 29.9 µM | U-251 18.6 µM

CCOC(=O)N1N=NC2C3OC(C[C@@]3(C#N)OC(C)=O)[C@H]21 (stereo not given in full)
inactive: SK-OV-3 > 100 µM | SK-MEL-5 > 100 µM | RPMI-8226 > 100 µM | HOP-92 > 100 µM | NCI-H522 > 100 µM | K562 > 100 µM | CAKI-1 > 100 µM | SNB-19 > 100 µM | 786-0 > 100 µM | HT-29 > 100 µM | SF-268 51.9 µM | HCC 2998 > 100 µM | TK-10 > 100 µM | U-251 > 100 µM

CC1(C)N=c2c(ncn2CCCO)=C(C(N)=O)N1
inactive: SK-OV-3 > 100 µM | SK-MEL-5 > 100 µM | RPMI-8226 > 100 µM | HOP-92 > 100 µM | NCI/ADR-RES > 100 µM | Hs-578T > 100 µM | NCI-H522 > 100 µM | MDA-MB-435 > 100 µM | MDA-N > 100 µM | K562 > 100 µM | CAKI-1 > 100 µM | SNB-19 > 100 µM | 786-0 > 100 µM | HT-29 > 100 µM | SF-268 > 100 µM | HCC 2998 > 100 µM | TK-10 > 100 µM | U-251 > 100 µM

COc1ccc(C(=O)/C=C/c2ccc(OCCCCCCCCCCOc3ccc(/C=C/C(=O)c4ccc(OC)cc4)cc3)cc2)cc1
inactive: SK-OV-3 > 100 µM | SK-MEL-5 > 100 µM | RPMI-8226 > 100 µM | NCI/ADR-RES > 100 µM | Hs-578T > 100 µM | MDA-MB-435 > 100 µM | MDA-N > 100 µM | K562 > 100 µM | CAKI-1 > 100 µM | SNB-19 > 100 µM | 786-0 > 100 µM | HT-29 > 100 µM | SF-268 > 100 µM | HCC 2998 > 100 µM | TK-10 > 100 µM | U-251 > 100 µM

O=C1NC(=S)N(c2ccccc2)C1=O
inactive: SK-OV-3 > 100 µM | SK-MEL-5 > 100 µM | RPMI-8226 > 100 µM | HOP-92 > 100 µM | NCI/ADR-RES > 100 µM | Hs-578T > 100 µM | NCI-H522 3.79 µM | MDA-MB-435 > 100 µM | K562 > 100 µM | CAKI-1 > 100 µM | SNB-19 > 100 µM | 786-0 > 100 µM | HT-29 > 100 µM | SF-268 > 100 µM | HCC 2998 > 100 µM | TK-10 > 100 µM | U-251 > 100 µM

CCOC(=O)C(C(=O)Cc1ccccc1)c1ccccc1 (stereo not given)
inactive: SK-OV-3 > 100 µM | SK-MEL-5 > 100 µM | RPMI-8226 > 100 µM | HOP-92 57 µM | NCI-H522 > 100 µM | K562 > 100 µM | CAKI-1 > 100 µM | SNB-19 > 100 µM | 786-0 > 100 µM | HT-29 > 100 µM | SF-268 > 100 µM | TK-10 > 100 µM | U-251 > 100 µM

COC1C=COC2(C)Oc3c(C)c(O)c4c(O)c(c(C5SCCS5)c(O)c4c3C2=O)NC(=O)/C(C)=C\C=CC(C)C(O)C(C)C(O)C(C)C(OC(C)=O)C1C (stereo not given)
inactive: BT-549 3.84 µM | SK-OV-3 14.1 µM | SK-MEL-5 7.89 µM | RPMI-8226 2.71 µM | HOP-92 10.1 µM | NCI/ADR-RES 15.5 µM | Hs-578T 13.4 µM | NCI-H522 4.75 µM | MDA-MB-435 4.26 µM | K562 3.66 µM | CAKI-1 9.91 µM | SNB-19 4.88 µM | 786-0 8.87 µM | HT-29 3.49 µM | SF-268 11 µM | TK-10 3.21 µM | U-251 3.95 µM

COC(=O)c1c2c(cc3c1CC1(Cc4ccccc4C1=O)C3)CCC2 (stereo not given)
inactive: SK-OV-3 > 100 µM | SK-MEL-5 15.3 µM | RPMI-8226 18.6 µM | HOP-92 23 µM | NCI/ADR-RES 19.8 µM | Hs-578T 50 µM | NCI-H522 49.8 µM | MDA-MB-435 13.5 µM | MDA-N 8.55 µM | K562 8.34 µM | CAKI-1 10.7 µM | SNB-19 > 100 µM | 786-0 25.2 µM | HT-29 17.1 µM | SF-268 48.8 µM | HCC 2998 36.6 µM | TK-10 51.3 µM | U-251 56.5 µM

— ChEMBL document CHEMBL1201862, “PubChem BioAssay data set” (2004)
